Reference: the NIST ThermoML archive (doi:10.1016/j.jct.2014.07.018)
Where “and” joins values, the source holds several entries; their conditions need not be identical. Equal values may be shown once.

Assay: molar heat capacity at constant pressure
Details: 101.33 kPa, Vacuum adiabatic calorimetry

CCC[n+]1ccn(C)c1.[Br-] [1-methyl-3-propylimidazolium bromide]
Details	molar heat capacity at constant pressure
147.83 K, Crystal 2	133.2 J/K/mol
148.11 K, Glass	140.8 J/K/mol
149.71 K, Crystal 2	134.1 J/K/mol
149.83 K, Crystal 2	134.2 J/K/mol
150 K, Crystal 2	134.3 J/K/mol
150 K, Glass	141.9 J/K/mol
150.11 K, Glass	141.9 J/K/mol
151.82 K, Crystal 2	135.2 J/K/mol
151.83 K, Crystal 2	135.2 J/K/mol
152.11 K, Glass	143.1 J/K/mol
153.84 K, Crystal 2	136.2 J/K/mol
153.93 K, Crystal 2	136.3 J/K/mol
154.12 K, Glass	144.2 J/K/mol
155.85 K, Crystal 2	137.2 J/K/mol
156.04 K, Crystal 2	137.3 J/K/mol
156.13 K, Glass	145.4 J/K/mol
157.86 K, Crystal 2	138.3 J/K/mol
158.13 K, Glass	146.5 J/K/mol
158.16 K, Crystal 2	138.4 J/K/mol
159.86 K, Crystal 2	139.3 J/K/mol
160 K, Crystal 2	139.3 J/K/mol
160 K, Glass	147.5 J/K/mol
160.14 K, Glass	147.6 J/K/mol
160.27 K, Crystal 2	139.5 J/K/mol
161.87 K, Crystal 2	140.2 J/K/mol
162.15 K, Glass	148.7 J/K/mol
162.38 K, Crystal 2	140.6 J/K/mol
163.88 K, Crystal 2	141.3 J/K/mol
164.17 K, Glass	149.8 J/K/mol
164.5 K, Crystal 2	141.6 J/K/mol
165.89 K, Crystal 2	142.3 J/K/mol
166.18 K, Glass	151 J/K/mol
166.61 K, Crystal 2	142.6 J/K/mol
167.9 K, Crystal 2	143.3 J/K/mol
168.19 K, Glass	152.2 J/K/mol
168.73 K, Crystal 2	143.7 J/K/mol
169.91 K, Crystal 2	144.4 J/K/mol
170 K, Crystal 2	144.4 J/K/mol
170 K, Glass	153.2 J/K/mol
170.21 K, Glass	153.3 J/K/mol
170.84 K, Crystal 2	144.8 J/K/mol
171.92 K, Crystal 2	145.4 J/K/mol
172.22 K, Glass	154.5 J/K/mol
172.95 K, Crystal 2	146.1 J/K/mol
173.94 K, Crystal 2	146.6 J/K/mol
174.24 K, Glass	155.6 J/K/mol
175.06 K, Crystal 2	147.4 J/K/mol
175.95 K, Crystal 2	147.9 J/K/mol
176.26 K, Glass	156.8 J/K/mol
177.17 K, Crystal 2	148.7 J/K/mol
177.96 K, Crystal 2	149.1 J/K/mol
178.28 K, Glass	158 J/K/mol
179.28 K, Crystal 2	149.8 J/K/mol
179.98 K, Crystal 2	150.2 J/K/mol
180 K, Crystal 2	150.2 J/K/mol
180 K, Glass	159.1 J/K/mol
180.3 K, Glass	159.2 J/K/mol
181.39 K, Crystal 2	150.9 J/K/mol
182 K, Crystal 2	151.2 J/K/mol
182.32 K, Glass	160.4 J/K/mol
183.49 K, Crystal 2	152 J/K/mol
184.02 K, Crystal 2	152.2 J/K/mol
184.34 K, Glass	161.7 J/K/mol
185.6 K, Crystal 2	153 J/K/mol
186.04 K, Crystal 2	153.2 J/K/mol
186.37 K, Glass	162.9 J/K/mol
187.7 K, Crystal 2	154.1 J/K/mol
188.06 K, Crystal 2	154.3 J/K/mol
188.39 K, Glass	164.2 J/K/mol
189.8 K, Crystal 2	155.2 J/K/mol
190 K, Crystal 2	155.3 J/K/mol
190 K, Glass	164.3 J/K/mol
190.08 K, Crystal 2	155.3 J/K/mol
190.42 K, Glass	165.5 J/K/mol
191.9 K, Crystal 2	156.2 J/K/mol
192.1 K, Crystal 2	156.3 J/K/mol
192.45 K, Glass	166.9 J/K/mol
194 K, Crystal 2	157.3 J/K/mol
194.12 K, Crystal 2	157.4 J/K/mol
194.48 K, Glass	168.3 J/K/mol
196.1 K, Crystal 2	158.4 J/K/mol
196.15 K, Crystal 2	158.4 J/K/mol
196.52 K, Glass	169.7 J/K/mol
198.17 K, Crystal 2	159.4 J/K/mol
198.2 K, Crystal 2	159.4 J/K/mol
198.56 K, Glass	171.3 J/K/mol
200 K, Crystal 2	160.4 J/K/mol
200 K, Glass	171.3 J/K/mol
200.2 K, Crystal 2	160.5 J/K/mol
200.29 K, Crystal 2	160.5 J/K/mol
200.61 K, Glass	173 J/K/mol
202.22 K, Crystal 2	161.6 J/K/mol
202.39 K, Crystal 2	161.7 J/K/mol
202.66 K, Glass	174.7 J/K/mol
204.25 K, Crystal 2	162.6 J/K/mol
204.48 K, Crystal 2	162.8 J/K/mol
204.71 K, Glass	177.1 J/K/mol
206.28 K, Crystal 2	163.8 J/K/mol
206.57 K, Crystal 2	163.9 J/K/mol
206.79 K, Glass	179.5 J/K/mol
208.31 K, Crystal 2	164.9 J/K/mol
208.66 K, Crystal 2	165.1 J/K/mol
208.84 K, Glass	183.4 J/K/mol
210 K, Crystal 2	165.9 J/K/mol
210 K, Glass	183.6 J/K/mol
210.35 K, Crystal 2	166 J/K/mol
210.75 K, Crystal 2	166.3 J/K/mol
210.87 K, Glass	189.3 J/K/mol
212.38 K, Crystal 2	167.3 J/K/mol
212.84 K, Crystal 2	167.5 J/K/mol
212.85 K, Glass	201.5 J/K/mol
214.41 K, Crystal 2	168.5 J/K/mol
214.71 K, Liquid	229.7 J/K/mol
214.92 K, Crystal 2	168.8 J/K/mol
216.44 K, Crystal 2	169.7 J/K/mol
216.52 K, Liquid	256.1 J/K/mol
217 K, Crystal 2	170.1 J/K/mol
218.48 K, Crystal 2	170.9 J/K/mol
218.48 K, Liquid	258.4 J/K/mol
219.08 K, Crystal 2	171.3 J/K/mol
220 K, Crystal 2	171.8 J/K/mol
220 K, Liquid	258.4 J/K/mol
220.51 K, Crystal 2	172.1 J/K/mol
220.52 K, Liquid	259.6 J/K/mol
221.15 K, Crystal 2	172.5 J/K/mol
222.55 K, Crystal 2	173.3 J/K/mol
223.22 K, Crystal 2	173.7 J/K/mol
224.59 K, Crystal 2	174.5 J/K/mol
225.29 K, Crystal 2	175 J/K/mol
226.63 K, Crystal 2	175.8 J/K/mol
227.36 K, Crystal 2	176.2 J/K/mol
228.67 K, Crystal 2	177 J/K/mol
229.42 K, Crystal 2	177.5 J/K/mol
230 K, Crystal 2	177.8 J/K/mol
230 K, Liquid	261.5 J/K/mol
230.71 K, Crystal 2	178.2 J/K/mol
231.48 K, Crystal 2	178.7 J/K/mol
233.47 K, Crystal 2	180 J/K/mol
233.54 K, Crystal 2	180 J/K/mol
235.59 K, Crystal 2	181.3 J/K/mol
235.81 K, Crystal 2	181.5 J/K/mol
237.64 K, Crystal 2	182.5 J/K/mol
237.86 K, Crystal 2	182.7 J/K/mol
239.69 K, Crystal 2	183.9 J/K/mol
239.9 K, Crystal 2	184.1 J/K/mol
240 K, Crystal 2	184.1 J/K/mol
240 K, Liquid	263.8 J/K/mol
241.74 K, Crystal 2	185.1 J/K/mol
241.94 K, Crystal 2	185.3 J/K/mol
243.78 K, Crystal 2	186.4 J/K/mol
243.99 K, Crystal 2	186.6 J/K/mol
245.82 K, Crystal 2	187.8 J/K/mol
246.03 K, Crystal 2	187.9 J/K/mol
247.86 K, Crystal 2	189.1 J/K/mol
248.07 K, Crystal 2	189.3 J/K/mol
249.89 K, Crystal 2	190.6 J/K/mol
250 K, Crystal 2	190.6 J/K/mol
250 K, Liquid	266.2 J/K/mol
250.11 K, Crystal 2	190.7 J/K/mol
251.92 K, Crystal 2	192 J/K/mol
252.16 K, Crystal 2	192.2 J/K/mol
253.95 K, Crystal 2	193.4 J/K/mol
254.2 K, Crystal 2	193.6 J/K/mol
255.97 K, Crystal 2	194.9 J/K/mol
256.25 K, Crystal 2	195.1 J/K/mol
257.98 K, Crystal 2	196.4 J/K/mol
258.29 K, Crystal 2	196.7 J/K/mol
260 K, Crystal 2	198 J/K/mol and 198.1 J/K/mol
260 K, Liquid	269.1 J/K/mol
260.33 K, Crystal 2	198.3 J/K/mol
262 K, Crystal 2	199.6 J/K/mol
262.37 K, Crystal 2	199.9 J/K/mol
264.01 K, Crystal 2	201.2 J/K/mol
264.42 K, Crystal 2	201.7 J/K/mol
266.06 K, Crystal 2	203.2 J/K/mol
266.47 K, Crystal 2	203.4 J/K/mol
268.16 K, Crystal 2	205.1 J/K/mol
268.52 K, Crystal 2	205.3 J/K/mol
270 K, Crystal 2	206.7 J/K/mol
270 K, Liquid	272 J/K/mol
270.26 K, Crystal 2	207.1 J/K/mol
270.57 K, Crystal 2	207.1 J/K/mol
272.36 K, Crystal 2	209.2 J/K/mol
272.62 K, Crystal 2	209.4 J/K/mol
274.45 K, Crystal 2	211.5 J/K/mol
274.67 K, Crystal 2	211.5 J/K/mol
276.54 K, Crystal 2	213.9 J/K/mol
276.71 K, Crystal 2	213.9 J/K/mol
278.62 K, Crystal 2	216.6 J/K/mol
278.75 K, Crystal 2	216.6 J/K/mol
280 K, Crystal 2	216.4 J/K/mol
280 K, Liquid	275.1 J/K/mol
280.68 K, Crystal 2	219.5 J/K/mol
280.79 K, Crystal 2	219.5 J/K/mol
282.74 K, Crystal 2	222.7 J/K/mol
282.84 K, Crystal 2	222.7 J/K/mol
284.78 K, Crystal 2	226.4 J/K/mol
284.88 K, Crystal 2	226.6 J/K/mol
286.82 K, Crystal 2	230.9 J/K/mol
288.82 K, Crystal 2	236.3 J/K/mol
290 K, Crystal 2	227.1 J/K/mol
290 K, Liquid	278.2 J/K/mol
290.81 K, Crystal 2	242.8 J/K/mol
292.77 K, Crystal 2	251.5 J/K/mol
294.69 K, Crystal 2	262.7 J/K/mol
295.89 K, Liquid	280.2 J/K/mol
296.57 K, Crystal 2	278.5 J/K/mol
297.86 K, Liquid	280.6 J/K/mol
298.15 K, Liquid	280.8 J/K/mol
298.39 K, Crystal 2	300.9 J/K/mol
299.92 K, Liquid	281.4 J/K/mol
300 K, Liquid	281.4 J/K/mol
300.12 K, Crystal 2	334.9 J/K/mol
301.74 K, Crystal 2	387.4 J/K/mol
301.97 K, Liquid	282 J/K/mol
303.2 K, Crystal 2	470.7 J/K/mol
304.02 K, Liquid	282.8 J/K/mol
304.47 K, Crystal 2	613.7 J/K/mol
305.51 K, Crystal 2	844.2 J/K/mol
306.07 K, Liquid	283.2 J/K/mol
306.32 K, Crystal 2	1193 J/K/mol
306.93 K, Crystal 2	1697 J/K/mol
308.12 K, Liquid	284.1 J/K/mol
309.54 K, Crystal 2	251.4 J/K/mol
309.54 K, Liquid	284.6 J/K/mol
310 K, Liquid	284.7 J/K/mol
310.17 K, Liquid	284.7 J/K/mol
312.01 K, Liquid	285.5 J/K/mol
312.22 K, Liquid	285.3 J/K/mol
314.27 K, Liquid	285.9 J/K/mol
316.32 K, Liquid	286.9 J/K/mol
318.37 K, Liquid	287.5 J/K/mol
320 K, Liquid	288.1 J/K/mol
320.41 K, Liquid	288.2 J/K/mol
322.46 K, Liquid	288.8 J/K/mol
324.5 K, Liquid	289.6 J/K/mol
326.54 K, Liquid	290.4 J/K/mol
328.58 K, Liquid	291 J/K/mol
330 K, Liquid	291.7 J/K/mol
330.62 K, Liquid	291.9 J/K/mol
332.66 K, Liquid	292.7 J/K/mol
334.7 K, Liquid	293.3 J/K/mol
336.73 K, Liquid	294.1 J/K/mol
338.61 K, Liquid	294.7 J/K/mol
340 K, Liquid	295.3 J/K/mol
340.58 K, Liquid	295.5 J/K/mol
342.63 K, Liquid	296.2 J/K/mol
344.68 K, Liquid	297 J/K/mol
346.73 K, Liquid	297.8 J/K/mol
348.78 K, Liquid	298.6 J/K/mol
350 K, Liquid	299.1 J/K/mol
350.82 K, Liquid	299.4 J/K/mol
352.87 K, Liquid	300.3 J/K/mol
354.92 K, Liquid	300.9 J/K/mol
356.97 K, Liquid	301.7 J/K/mol
359.01 K, Liquid	302.5 J/K/mol
360 K, Liquid	303 J/K/mol
361.05 K, Liquid	303.5 J/K/mol
363.1 K, Liquid	304.2 J/K/mol
365.14 K, Liquid	305 J/K/mol
367.18 K, Liquid	305.8 J/K/mol
370 K, Liquid	307 J/K/mol
